Results as given in patent US20260308186A1, “STAT DEGRADERS AND USES THEREOF” (Recludix Pharma, Inc., priority 2023, published 2026).
Like-named read-outs stand apart in the source and are kept apart here.

What was measured:
pSTAT6 = molecular target: T1, pSTAT6 (Homo sapiens, UniProt P42226); experiment: MSD-pSTAT-PBMC Assay, pSTAT6 (IL-4 stimulated PBMC); type: cell-based
T1 construct: pY641-STAT6 MSD read-out
T1 sequence (P42226 1-847): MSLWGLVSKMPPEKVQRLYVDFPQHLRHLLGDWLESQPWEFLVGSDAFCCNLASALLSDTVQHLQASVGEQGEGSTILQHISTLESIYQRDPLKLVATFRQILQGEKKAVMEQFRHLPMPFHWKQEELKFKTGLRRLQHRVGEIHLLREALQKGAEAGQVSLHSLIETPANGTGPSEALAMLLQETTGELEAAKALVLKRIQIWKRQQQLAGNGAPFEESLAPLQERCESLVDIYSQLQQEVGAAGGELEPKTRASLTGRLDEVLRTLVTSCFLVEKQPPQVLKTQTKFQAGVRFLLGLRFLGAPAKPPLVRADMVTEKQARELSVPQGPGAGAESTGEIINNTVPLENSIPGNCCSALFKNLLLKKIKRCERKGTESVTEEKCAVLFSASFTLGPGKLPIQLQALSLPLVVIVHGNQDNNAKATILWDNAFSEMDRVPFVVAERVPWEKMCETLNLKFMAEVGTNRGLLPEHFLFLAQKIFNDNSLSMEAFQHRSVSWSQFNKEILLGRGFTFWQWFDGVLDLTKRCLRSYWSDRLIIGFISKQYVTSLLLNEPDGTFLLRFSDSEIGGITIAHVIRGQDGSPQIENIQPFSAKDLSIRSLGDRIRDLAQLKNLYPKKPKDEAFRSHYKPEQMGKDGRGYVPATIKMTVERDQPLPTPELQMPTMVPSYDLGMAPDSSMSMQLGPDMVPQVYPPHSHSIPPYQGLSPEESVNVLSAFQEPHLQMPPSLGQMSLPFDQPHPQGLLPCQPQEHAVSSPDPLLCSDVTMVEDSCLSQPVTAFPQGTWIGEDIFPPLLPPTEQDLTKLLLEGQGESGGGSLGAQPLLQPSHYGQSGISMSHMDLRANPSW
From the text: Cryopreserved Peripheral Blood Mononuclear Cells (PBMC) are from AllCells. Recombinant Human IL-4 and IL-6 are from Peprotech. Mouse monoclonal anti-STAT3 antibody, rabbit monoclonal anti-pY705-STAT3 antibody, rabbit monoclonal Anti-pY641-STAT6 antibody, and lysis buffer are from Cell Signaling Technology (CST). Mouse monoclonal anti-STAT6 antibody is from BioLegend. Assay plates, blocker, and anti-rabbit secondary antibody are from Meso Scale Discovery (MSD).
Cryopreserved PBMCs were thawed out and allowed to recover overnight in IMDM+10% heat-inactivated FBS prior to plating 50,000 (STAT3) or 25,000 (STAT6) cells per well in 96-well U-bottom tissue culture plates. Cells were treated with compound for 3 hrs. then stimulated with 10 ng/mL IL-6 (STAT3) or 1 ng/mL IL-4 (STAT6) for 10 min. Cells were then spun down and washed with ice-cold PBS prior to lysing the cell pellet with 1× lysis buffer (CST) with 1×HALT protease and phosphatase inhibitor cocktail (Thermo). Lysates were transferred to and incubated overnight at 4° C. with shaking in QuickPlex 96-well high bind assay plates (MSD) pre-coated overnight with 30 μL per well of 0.6 μg/mL mouse monoclonal anti-STAT3 antibody (STAT3) or 2 μg/mL mouse monoclonal anti-STAT6 antibody (STAT6) in 1×PBS, and pre-blocked for 1 hour with 3% Blocker-A (MSD). Captured protein in the assay plates were then washed and probed with 25 μL per well of 0.25 μg/ml rabbit monoclonal anti-pY705-STAT3 antibody (STAT3) or 0.18 μg/ml rabbit monoclonal Anti-pY641-STAT6 antibody (STAT6) in 1% Blocker-A for 1 hour at room temperature with shaking, then washed and probed with 25 ul per well of 1 ug/ml Sulfo-TAG Labeled Goat Anti-Rabbit Antibody (MSD) in 1% Blocker-A for 1 hour at room temperature with shaking. Assay plates were then washed and 150 μL of 1× Read Buffer-T (MSD) was added to each well prior to reading on an SQ120 MSD Plate Reader. Assay signal from each sample was subtracted by the signal from unstimulated control wells and normalized to DMSO control wells. IC50 values were calculated using Graph Pad Prism Dose-Response Nonlinear Regression with variable slope. For both pSTAT3 and pSTAT6 A=≤100 nM; B=>100-1000 nM; C=>1000-3000 nM; and D=>3 μM.

STAT3 = molecular target: T2, STAT3 (Homo sapiens, UniProt P40763); experiment: STAT3 Fluorescence Polarization (FP) Assay; type: binding
T2 construct: Recombinant STAT3 protein (STAT3(G127-1722))
Procedure: STAT3 Fluorescence Polarization (FP) Assay
An FP assay was developed to determine IC50 values for test substances. Recombinant STAT3 protein (STAT3(G127-1722)) at 25 nM was combined with a fluorescently labeled, phosphotyrosine peptide probe (5-FAM-GpYLPQTV-NH2) at 2 nM in FP buffer (10 mM HEPES pH 7.4, 50 mM NaCl, 1 mM EDTA, 0.05% Tween 20.2 mM DTT). 50 μL of STAT3-probe mixture was added to serial diluted compounds in black, 96-well plates (Greiner BioOne 655076) to a final concentration of 1% DMSO. Reaction components were mixed, and FP was measured after 45-minute incubation at room temperature using a Tecan Spark multimode plate reader. FP signal (mP) was plotted against the log concentration of the test substances and IC50 values were calculated by nonlinear regression analysis using GraphPad Prism software. For STAT3 FP assay. A=≤100 nM; B=>100-1000 nM; C=>1-10 μM; and D=>10 μM.

STAT6 = molecular target: T3, STAT6 (Homo sapiens, UniProt P42226); experiment: STAT6 Fluorescence Polarization (FP) Assay; type: binding
T3 construct: Recombinant STAT6 protein (STAT6(W123-T658))
T3 sequence (P42226 123-658): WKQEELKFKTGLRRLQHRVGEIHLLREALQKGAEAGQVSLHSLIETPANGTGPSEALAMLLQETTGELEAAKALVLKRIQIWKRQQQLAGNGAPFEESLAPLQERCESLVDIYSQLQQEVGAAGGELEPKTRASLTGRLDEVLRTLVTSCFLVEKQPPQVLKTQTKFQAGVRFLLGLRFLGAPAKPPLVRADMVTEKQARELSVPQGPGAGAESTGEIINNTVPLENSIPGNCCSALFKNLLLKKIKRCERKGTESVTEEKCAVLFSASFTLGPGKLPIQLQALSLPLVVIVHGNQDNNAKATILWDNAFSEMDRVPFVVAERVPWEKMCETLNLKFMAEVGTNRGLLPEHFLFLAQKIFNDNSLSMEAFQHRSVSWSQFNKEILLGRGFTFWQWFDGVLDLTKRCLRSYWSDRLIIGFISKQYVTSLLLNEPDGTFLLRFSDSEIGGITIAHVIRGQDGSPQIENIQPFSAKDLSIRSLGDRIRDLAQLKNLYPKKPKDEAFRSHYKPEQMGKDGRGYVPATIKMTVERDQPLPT
Procedure: STAT6 Fluorescence Polarization (FP) Assay
An FP assay was developed to determine IC50 values for test substances. Recombinant STAT6 protein (STAT6(W123-T658)) at 250 nM was combined with a fluorescently labeled, phosphotyrosine peptide probe (5-FAM-Ap[…]-NH2) at 2 nM in FP buffer (10 mM HEPES pH 7.4, 50 mM NaCl, 1 mM EDTA, 0.05% Tween 20, 2 mM DTT), 50 μL of STAT6-probe mixture was added to serial diluted compounds in black, 96-well plates (Greiner BioOne 655076) to a final concentration of 1% DMSO. Reaction components were mixed, and FP was measured after 45-minute incubation at room temperature using a Tecan Spark multimode plate reader. FP signal (mP) was plotted against the log concentration of the test substances and IC50 values were calculated by nonlinear regression analysis using GraphPad Prism software. For STAT6 FP assay. A=≤300 nM; B=>300-3000 nM; C=>3-30 μM; and D=>30 μM.

[1] = read-out: pSTAT6 IC50, compound 3 hrs, then 1 ng/mL IL-4 for 10 min, pY641-STAT6
[2] = compound 3 hrs, then 1 ng/mL IL-4 for 10 min, pY641-STAT6, read-out: pSTAT6 IC50
[3] = recombinant STAT3 25 nM, probe 5-FAM-GpYLPQTV-NH2 2 nM, 45 min, room temperature, read-out: STAT3 FP IC50
[4] = recombinant STAT6(W123-T658) 250 nM, probe 5-FAM-Ap[…]-NH2 2 nM, 45 min, room temperature, read-out: STAT6 FP IC50

T2 sequence (P40763 127-722 limits assumed): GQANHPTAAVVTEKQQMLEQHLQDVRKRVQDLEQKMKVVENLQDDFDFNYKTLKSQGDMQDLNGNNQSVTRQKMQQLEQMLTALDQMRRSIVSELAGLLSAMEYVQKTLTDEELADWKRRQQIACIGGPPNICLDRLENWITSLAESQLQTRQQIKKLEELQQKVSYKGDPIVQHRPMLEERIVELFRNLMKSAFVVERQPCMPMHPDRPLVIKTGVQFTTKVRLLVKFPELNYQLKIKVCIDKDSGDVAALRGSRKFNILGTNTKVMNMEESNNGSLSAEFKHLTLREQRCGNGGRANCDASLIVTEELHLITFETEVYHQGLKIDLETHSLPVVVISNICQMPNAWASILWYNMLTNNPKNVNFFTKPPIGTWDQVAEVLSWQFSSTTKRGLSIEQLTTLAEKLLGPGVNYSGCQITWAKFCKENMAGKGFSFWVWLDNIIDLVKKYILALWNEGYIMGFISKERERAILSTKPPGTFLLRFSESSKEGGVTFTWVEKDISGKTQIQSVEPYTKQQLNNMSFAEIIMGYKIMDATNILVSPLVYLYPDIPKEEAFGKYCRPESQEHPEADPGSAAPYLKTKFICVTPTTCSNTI

Row | Compound | IC50 (pSTAT6; [2]) [µM] | IC50 (STAT3; [3]) [µM] | IC50 (STAT6; [4]) [µM] | IC50 (pSTAT6; [1]) [µM] | IC50 (STAT3) [µM] | IC50 (STAT6) [µM]
1 | Cc1ccc2[nH]nc(C(=O)N3CC[C@H]4CC[C@@H](C(=O)N(C)CCCCCCC#Cc5cccc6c5CN(C5CCC(=O)NC5=O)C6=O)N4C(=O)[C@@H](NC(=O)c4ccc5ccc(C(F)P(=O)(O)O)cc5c4)C3)c2c1 (stereo partly drawn) [Compound 14, ((7-(((5S,8S,10aR)-8-((8-(2-(2,6-dioxopiperidin-3-yl)-1-oxoisoindolin-4-yl)oct-7-yn-1-yl)(methyl)carbamoyl)-3-(5-methyl-1H-indazole-3-carbonyl)-6-oxodecahydropyrrolo[1,2-a][1,5]diazocin-5-yl)carbamoyl)naphthalen-2-yl)fluoromethyl)phosphonic acid] |  |  |  | > 3 | > 10 | 0.3 to 3
2 | Cc1ccc2onc(C(=O)N3CC[C@H]4CC[C@@H](C(=O)N5CCN(c6ccc7c(c6)[nH]c(=O)n7C6CCC(=O)NC6=O)CC5)N4C(=O)[C@@H](NC(=O)c4ccc5ccc(C(F)(F)P(=O)(O)O)cc5c4)C3)c2c1 (stereo partly drawn) [Compound 34, ((7-(((5S,8S,10aR)-8-(4-(1-(2,6-dioxopiperidin-3-yl)-2-oxo-2,3-dihydro-1H-benzo[d]imidazol-5-yl)piperazine-1-carbonyl)-3-(5-methylbenzo[d]isoxazole-3-carbonyl)-6-oxodecahydropyrrolo[1,2-a][1,5]diazocin-5-yl)carbamoyl)naphthalen-2-yl)difluoromethyl)phosphonic acid] | > 3 | 1 to 10 | < 0.3 |  |  | 
3 | Cc1ccc2[nH]nc(C(=O)N3CC[C@H]4CC[C@@H](C(=O)N(C)CCCCCCC#Cc5cccc6c5CN(C5CCC(=O)NC5=O)C6=O)N4C(=O)[C@@H](NC(=O)c4ccc5ccc(C(F)(F)P(=O)(O)O)cc5c4)C3)c2c1 (stereo partly drawn) [Compound 11, ((7-(((5S,8S,10aR)-8-((8-(2-(2,6-dioxopiperidin-3-yl)-1-oxoisoindolin-4-yl)oct-7-yn-1-yl)(methyl)carbamoyl)-3-(5-methyl-1H-indazole-3-carbonyl)-6-oxodecahydropyrrolo[1,2-a][1,5]diazocin-5-yl)carbamoyl)naphthalen-2-yl)difluoromethyl)phosphonic acid] |  |  |  | 0.1 to 1 | 1 to 10 | < 0.3
4 | Cc1ccc2[nH]nc(C(=O)N3CC[C@H]4CC[C@@H](C(=O)N(C)CCCCCCC#Cc5cccc6c5CN(C5CCC(=O)NC5=O)C6=O)N4C(=O)[C@@H](NC(=O)c4ccc5ccc(CP(=O)(O)O)cc5c4)C3)c2c1 (stereo partly drawn) [Compound 15, ((7-(((5S,8S,10aR)-8-((8-(2-(2,6-dioxopiperidin-3-yl)-1-oxoisoindolin-4-yl)oct-7-yn-1-yl)(methyl)carbamoyl)-3-(5-methyl-1H-indazole-3-carbonyl)-6-oxodecahydropyrrolo[1,2-a][1,5]diazocin-5-yl)carbamoyl)naphthalen-2-yl)methyl)phosphonic acid] |  |  |  | > 3 | > 10 | 0.3 to 3

Continued, in another order:

Row | IC50 (pSTAT6; [2]) [µM] | IC50 (STAT3; [3]) [µM] | IC50 (STAT6; [4]) [µM] | Compound | IC50 (pSTAT6; [1]) [µM] | IC50 (STAT3) [µM] | IC50 (STAT6) [µM]
5 | > 3 | 1 to 10 | < 0.3 | Cc1ccc2onc(C(=O)N3CC[C@H]4CC[C@@H](C(=O)N(C)CC(=O)N[C@H](C(=O)N5C[C@H](O)C[C@H]5C(=O)N[C@@H](C)c5ccc(-c6scnc6C)cc5)C(C)(C)C)N4C(=O)[C@@H](NC(=O)c4ccc5ccc(C(F)(F)P(=O)(O)O)cc5c4)C3)c2c1 [Compound 27, (difluoro(7-(((5S,8S,10aR)-8-((2-(((S)-1-((2S,4R)-4-hydroxy-2-(((S)-1-(4-(4-methylthiazol-5-yl)phenyl)ethyl)carbamoyl)pyrrolidin-1-yl)-3,3-dimethyl-1-oxobutan-2-yl)amino)-2-oxoethyl)(methyl)carbamoyl)-3-(5-methylbenzo[d]isoxazole-3-carbonyl)-6-oxodecahydropyrrolo[1,2-a][1,5]diazocin-5-yl)carbamoyl)naphthalen-2-yl)methyl)phosphonic acid] |  |  | 
6 | > 3 | > 10 | < 0.3 | Cc1ccc2onc(C(=O)N3CC[C@H]4CC[C@@H](C(=O)N5CCN(c6ccc7[nH]c(=O)n(C8CCC(=O)NC8=O)c7c6)CC5)N4C(=O)[C@@H](NC(=O)c4ccc5ccc(C(F)(F)P(=O)(O)O)cc5c4)C3)c2c1 (stereo partly drawn) [Compound 37, ((7-(((5S,8S,10aR)-8-(4-(3-(2,6-dioxopiperidin-3-yl)-2-oxo-2,3-dihydro-1H-benzo[d]imidazol-5-yl)piperazine-1-carbonyl)-3-(5-methylbenzo[d]isoxazole-3-carbonyl)-6-oxodecahydropyrrolo[1,2-a][1,5]diazocin-5-yl)carbamoyl)naphthalen-2-yl)difluoromethyl)phosphonic acid] |  |  | 
